Patent US20260234215A1, “Anti-Inflammatory Bio-Active Collagen Hybridizing Peptides and Methods of Using Thereof” (3HELIX, INC., priority 2023, published 2026)

Tested on: Jurkat T-Cells (E6-1 from ATCC)
Assay: In vitro T-cell activation/inhibition assay (anti-CD3/anti-CD28 stimulation, IL-2 ELISA)
Assay type: cell-based, human
Conditions: 37° C., CHP 100 μM with gelatin 0.5 mg/mL
Protocol: A particular in vitro activation assay was carried out to evaluate the effects that the anti-inflammatory bioactive LAIR-1 CHPs have on T-cells. Details regarding the experimental conditions for the T-cell assay with Jukat T-cells are depicted in FIG. 13. As shown, Jukat T-cells were incubated with activating antibodies against CD3 and CD28 receptors to initiate activation. […] T-cell activation was then assessed by ELISA for IL-2 secretion in media supernatant. Activated T-cells express high levels of IL-2.
Secreted IL-2 was measured for the following conditions: negative control which were unactivated T cells; positive control T cells which received anti-CD3 and anti-CD28 antibodies; positive control t cells which received stimulating antibodies in the presence of soluble gelatin; and the CHP test condition which received stimulating antibodies in the presence of LAIR1-CHPs.
For the T-cell activation/inhibition experimental protocol, three monomeric CHPs (LAIR-1 HTm CHP1 [SEQ ID NO: 87, wherein x=4 and y=4], LAIR-1 HTm CHP2 [SEQ ID NO: 2, wherein x=4 and y=4], and LAIR-1 HTm CHP3 [SEQ ID NO: 106]) were tested for T-cell activation/inhibition. First, CHPs were incubated with the gelatin under test conditions for at least 24 hours at 37° C. The final gelatin concentration in the media for incubation was 0.5 mg/mL. […]

Substance: Biotin-GGG-(GPO)9 [LAIR-1 HTm CHP3]
- effect on IL 2 production compared to the gelatin positive control (72 hours post-stimulation): did not have an effect
- effect on IL 2 production compared to the gelatin positive control (96 hours post-stimulation): did not have an effect
